Test systems include OVCAR-3 ovarian; SK-MEL-2 melanoma; K-562 leukemia; OVCAR-4 ovarian; T-47D breast; SF-295 CNS; SK-OV-3 ovarian; SK-MEL-28 melanoma; SF-539 CNS; HCC-2998 colon.
What all share (test): NCI tumour cell line growth inhibition, 48 h

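Where inhibition never reached the appropriate level, the endpoint shown equals the highest concentration tested. Otherwise, values were interpolated linearly from a five-concentration, 48-hour dose response in 96-well plates. GI50 marks 50% less growth. At the TGI there is no net growth.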

`N#C/C(=C/N1CCN(C(=O)c2ccco2)C1=S)C(=O)c1ccccc1`: the GI50 in the assay on OVCAR-3 ovarian is 18.2 µM; in the assay on SK-MEL-2 melanoma it was 3.68 µM; in the assay on K-562 leukemia it was 5.51 µM; in the assay on OVCAR-4 ovarian, 29.8 µM; in the assay on T-47D breast, 7.16 µM; in the assay on SF-295 CNS, 43.6 µM. For the same molecule, the GI50 with SK-OV-3 ovarian is 37.4 µM; in the assay with SK-MEL-28 melanoma it was 28 µM; in the assay on SF-539 CNS, 2.21 µM. The TGI with OVCAR-3 ovarian was 57.2 µM; in the assay with SK-MEL-2 melanoma, 15.8 µM; in the assay with K-562 leukemia, more than 100 µM; in the assay with OVCAR-4 ovarian, 93.2 µM; with T-47D breast, more than 100 µM; in the assay on SF-295 CNS, more than 100 µM. Further, the TGI is more than 100 µM in the assay with SK-OV-3 ovarian, more than 100 µM with SK-MEL-28 melanoma and 5.39 µM with SF-539 CNS.

For `Cc1c(C2=C(Br)C(=O)N(C)C2=O)c(=O)n(C)c(=O)n1C`, the TGI with HCC-2998 colon is 53.3 µM; in the assay on OVCAR-3 ovarian it was more than 100 µM; in the assay with SK-MEL-2 melanoma it was 35.2 µM; in the assay on K-562 leukemia it was 59.7 µM; in the assay on OVCAR-4 ovarian it was more than 100 µM; with T-47D breast, 42.6 µM. In addition, the TGI was more than 100 µM in the assay on SF-295 CNS, more than 100 µM in the assay with SK-OV-3 ovarian, more than 100 µM in the assay with SK-MEL-28 melanoma and 34.6 µM in the assay with SF-539 CNS.

As for `O=C(COc1ccc(/C=C2\CSc3ccccc3C2=O)cc1)Nc1nccs1`, the GI50 in the assay on HCC-2998 colon was 4.03 µM; in the assay with OVCAR-3 ovarian, 2.17 µM; in the assay on SK-MEL-2 melanoma, 11.3 µM; with K-562 leukemia, 3.11 µM; in the assay with OVCAR-4 ovarian, 18.9 µM; with T-47D breast, 13.5 µM. Also, the GI50 in the assay on SF-295 CNS is 11.8 µM; in the assay on SK-OV-3 ovarian, 22.2 µM; with SK-MEL-28 melanoma, 11.8 µM; in the assay on SF-539 CNS, 15 µM. Further, the TGI with HCC-2998 colon is 17.1 µM; with OVCAR-3 ovarian, 4.25 µM; with SK-MEL-2 melanoma, 23.3 µM; with K-562 leukemia, more than 100 µM; with OVCAR-4 ovarian, 72.3 µM; with T-47D breast, 42.4 µM. Besides, the TGI in the assay on SF-295 CNS stood at 25.6 µM; in the assay on SK-OV-3 ovarian, 42.2 µM; in the assay on SK-MEL-28 melanoma it was 24.1 µM; with SF-539 CNS, 29.7 µM.

Consider `N#CC(=NCCO)C1=C(O)c2ccccc2C1=O`, for which the TGI with OVCAR-3 ovarian, with SK-MEL-2 melanoma, with K-562 leukemia, in the assay on OVCAR-4 ovarian, in the assay on T-47D breast and in the assay with SF-295 CNS was more than 100 µM in each case. For the same molecule, the TGI with SK-OV-3 ovarian, with SK-MEL-28 melanoma and in the assay with SF-539 CNS was more than 100 µM throughout.

With `COc1ccc(C(=O)COc2cccc(/C=C3\Oc4ccc5ccccc5c4C3=O)c2)cc1`, the GI50 in the assay on HCC-2998 colon is 15.3 µM; in the assay on OVCAR-3 ovarian, 1.78 µM; with SK-MEL-2 melanoma, 3.76 µM; with K-562 leukemia it was 1.53 µM; with OVCAR-4 ovarian, 5.08 µM; in the assay with T-47D breast, 1.98 µM. The results for the GI50 in the assay with SF-295 CNS, in the assay on SK-MEL-28 melanoma and in the assay with SF-539 CNS were 14.3 µM, 15.3 µM and 13.4 µM, respectively. For the same molecule, the TGI with HCC-2998 colon was 28.8 µM; in the assay with OVCAR-3 ovarian, 3.54 µM; in the assay with SK-MEL-2 melanoma, 16.6 µM; in the assay on K-562 leukemia it was 3.73 µM; in the assay with OVCAR-4 ovarian, 17.5 µM; in the assay on T-47D breast, 5.6 µM. Besides, the results for the TGI in the assay on SF-295 CNS, in the assay on SK-MEL-28 melanoma and with SF-539 CNS were 36.4 µM, 28.7 µM and 26.3 µM, respectively.

For `COc1cc2c3c(n(CCCN(C)C)c(=O)c2cc1OC)-c1ccccc1C3=O`, the GI50 is 3.17 µM with HCC-2998 colon; 5.83 µM with OVCAR-3 ovarian; more than 100 µM in the assay with SK-MEL-2 melanoma; 4.39 µM with K-562 leukemia; 6.68 µM with OVCAR-4 ovarian; 30.8 µM in the assay on T-47D breast. In addition, the GI50 in the assay with SF-295 CNS is 1.26 µM; in the assay with SK-OV-3 ovarian it was 29.4 µM; with SK-MEL-28 melanoma it was 8.5 µM; in the assay on SF-539 CNS it was 4.47 µM. Also, the TGI in the assay on HCC-2998 colon was 18.6 µM; in the assay with OVCAR-3 ovarian it was 54.8 µM; with SK-MEL-2 melanoma it was more than 100 µM; with K-562 leukemia it was 24.4 µM; in the assay on OVCAR-4 ovarian, 53.5 µM; with T-47D breast, more than 100 µM. In addition, the TGI is more than 100 µM with SK-OV-3 ovarian, more than 65 µM in the assay with SK-MEL-28 melanoma and 28.7 µM in the assay on SF-539 CNS.

As to `CCc1ccccc1NC(=O)c1sc2nc3c(cc2c1N)C(=O)CCC3`, the GI50 in the assay with HCC-2998 colon is 1.67 µM; in the assay on OVCAR-3 ovarian, 0.383 µM; with K-562 leukemia it was 0.275 µM; in the assay with OVCAR-4 ovarian, 1.54 µM; in the assay on T-47D breast, 0.533 µM; in the assay with SF-295 CNS, 0.283 µM. For the same molecule, the GI50 in the assay on SK-OV-3 ovarian is 0.537 µM; in the assay on SK-MEL-28 melanoma it was 3.71 µM; in the assay on SF-539 CNS, 0.373 µM. The TGI in the assay on HCC-2998 colon is more than 100 µM; with OVCAR-3 ovarian it was 16 µM; in the assay on K-562 leukemia it was more than 100 µM; in the assay with OVCAR-4 ovarian, more than 100 µM; in the assay on T-47D breast, more than 79.8 µM; in the assay on SF-295 CNS it was more than 88 µM. Further, the TGI with SK-OV-3 ovarian is 75.7 µM; in the assay with SK-MEL-28 melanoma, more than 100 µM; in the assay with SF-539 CNS, 3.15 µM.

For `COc1ccc2c(c1)[C@@]13CCCC[C@H]1[C@@H](C2)N(C)CC3=O`, the TGI was 31.5 µM in the assay with HCC-2998 colon; 32.9 µM in the assay on OVCAR-3 ovarian; 53.9 µM in the assay on SK-MEL-2 melanoma; more than 100 µM in the assay on K-562 leukemia; 33.3 µM in the assay with OVCAR-4 ovarian; 33.2 µM in the assay on T-47D breast. The values for the TGI with SF-295 CNS, in the assay with SK-OV-3 ovarian and in the assay on SK-MEL-28 melanoma were more than 100 µM, 53.9 µM and 30 µM, respectively.

`C[C@]12CC[C@@H]3c4ccc(O)cc4CC[C@H]3[C@@H]1CC[C@@H]2NS(=O)(=O)c1cccc(F)c1`: the GI50 in the assay on HCC-2998 colon is 5.27 µM; in the assay on SK-MEL-2 melanoma, 2.8 µM; in the assay with K-562 leukemia it was 3.22 µM; in the assay with OVCAR-4 ovarian, 2.72 µM; in the assay on T-47D breast, 3.82 µM; in the assay with SF-295 CNS, 3.29 µM. Moreover, the GI50 in the assay on SK-OV-3 ovarian is 6.12 µM; in the assay with SK-MEL-28 melanoma, 4.81 µM; with SF-539 CNS, 3.91 µM. The TGI in the assay on HCC-2998 colon was 16.9 µM; in the assay on SK-MEL-2 melanoma, 8.14 µM; in the assay on K-562 leukemia it was 15.2 µM; with OVCAR-4 ovarian, 14.4 µM; with T-47D breast, 14.8 µM; in the assay on SF-295 CNS it was 11.9 µM. Besides, the TGI in the assay with SK-OV-3 ovarian was determined as 18.2 µM; in the assay with SK-MEL-28 melanoma it was 17.8 µM; in the assay on SF-539 CNS it was 14.1 µM.
